Experimental data taken from paper PMC4279406, “Simultaneous targeting of PI3Kδ and a PI3Kδ-dependent MEK1/2-Erk1/2 pathway for therapy in pediatric B-cell acute lymphoblastic leukemia” (Oncotarget, 2014).

What was measured:
IGF-1R, activated = target: T1, IGF-1R, activated (Homo sapiens, UniProt P08069); assay: KinaseProfiler protein kinase activity; assay type: biochemical; conditions: 10 μM X-370
T1 construct: purchased Millipore KinaseProfiler
Method: (§1) In vitro kinase profile assays were analyzed by the Kinase Profiler Service (Millipore, United Kingdom) following its guidelines. A GST-tagged human p110δ and regulatory full-length p85 were co-expressed in insect cell Sf9. Recombinant protein was extracted by affinity purification. The PI3K kinase activity was determined in the increasing concentration of ATP and X-370 with PI3-Kinase HTRF™ Assay kit (Millipore) as described previously. […]
(§2) Table S1: Inhibitory activity of X-370 against protein kinases
(§3) kinome at 10 μM. The relative kianse activity left in the presence of 10 μM were shown (Mi llipore
(§4) Kinase activity (% of control) Kinase activity (% of control) Kinase activity (% of control)
(§5) CDK1/cyclinB 97 Lck activated 89 Ret 125

GSK3 α = target: T2, GSK3 α (Homo sapiens, UniProt P49840); assay: KinaseProfiler protein kinase activity; assay type: biochemical; conditions: 10 μM X-370
T2 construct: purchased Millipore KinaseProfiler
Method: as §1, §2, §3, §4, §5

TBK1 = target: T3, TBK1 (Homo sapiens, UniProt Q9UHD2); assay: KinaseProfiler protein kinase activity; assay type: biochemical; conditions: 10 μM X-370
T3 construct: purchased Millipore KinaseProfiler
Method: as §1, §2, §3, §4, §5

Src(1-530) = target: T4, Src(1-530) (Homo sapiens, UniProt P12931); assay: KinaseProfiler protein kinase activity; assay type: biochemical; conditions: 10 μM X-370
T4 construct: purchased Millipore KinaseProfiler
Method: as §1, §2, §3, §4, §5

AMPK α1 = target: T5, AMPK α1 (Homo sapiens, UniProt Q13131); assay: KinaseProfiler protein kinase activity; assay type: biochemical; conditions: 10 μM X-370
T5 construct: purchased Millipore KinaseProfiler
Method: as §1, §2, §3, §4, §5

[1] = test system: PI3Kα (IGF-1-stimulated MEF cells); assay: IGF-1-induced Akt phosphorylation in MEF cells; assay type: cell-based, murine; conditions: up to 0.5 μM; IGF-1 100 ng/ml; 1 h pre-incubation
Method: In fibroblasts, signals from the insulin-like growth factor 1 (IGF-1) receptor are mediated by PI3Kα, while lysophosphatidic acid (LPA) stimulates G-protein coupled receptor (GPCR) signals via PI3Kβ[26]. After being pre-incubated with X-370, murine embryonic fibroblasts cultured in serum-free medium were stimulated with IGF-1 or LPA. […] Either PI3Kδ or PI3Kγ can be activated in THP-1 monocytes dependent on the stimulating ligand, among which macrophage colony stimulating factor (M-CSF/CSF-1) activates RTK-coupled PI3Kδ, while monocyte chemoattractant protein-1 (MCP-1) activates PI3Kγ [24]. Accordingly, THP-1 cells cultured in serum-free medium were stimulated with MCP-1 or M-CSF in the presence of X-370 and phosphorylated Akt was measured.
Cell lysates were probed with indicated antibodies. The IC50 values were calculated based on relative band intensity measured with ImageQuant™ TL (GE Healthcare Life Sciences, Piscataway, NJ) (B). Data shown are mean values from three independent experiments. (C, D, E, F) X-370 blocked stimuli-triggered PI3Kδ activation. MEF cells and THP-1 were starved in serum-free medium for 12 h or 4 h respectively and X-370 were added for an additional 1 h treatment following stimulation of IGF-1 at 100 ng/ml for MEF cells (C), LPA at 10 μM for MEF cells (D), MCP-1 at 100ng/ml for THP-1 (E) and M-CSF at 50 ng/ml for THP-1 (F). […]

Raji-R cells = assay: Signaling by Western blot in Raji-R cells; assay type: cell-based, human; conditions: 1 h
Method: Raji and SU-DHL-6 cells were treated with X-370 for 1 h (left panel) or treated with 0.5 μM X-370 for indicated times (middle panel). Right panel, Raji cells were incubated in fresh medium following treatment with 0.5 μM X-370 for 1 h. Indicated proteins were detected. (B) Raji-R (the rituximab-resistant derivatives of Raji cells) cells were resistant to X-370. The activity of X-370 on the proliferation of Raji parent and Raji-R cells was determined by CCK-8 assay as described in the methods section. (C) X-370 blocked phosphorylation of Akt but not Erk1/2 in Raji-R cells. Raji-R cells were treated with X-370 for 1h and indicated proteins were detected. Data shown are representative from three independent experiments.
Simultaneous targeting of PI3Kδ and a PI3Kδ-dependent MEK1/2-Erk1/2 pathway for therapy in pediatric B-cell acute lymphoblastic […]
Cells were treated as indicated conditions and then subjected to lysate to perform standard Western blot as described previously1. Briefly, whole-cell lysates and SDS-loading buffer diluted cell fractions were analyzed on SDS-PAGE gels. […]
Raji cells were treated with or without X-370 at 1 μM, 5μM and 10 μM for 24, 48 and 72 hours, thenwere measured using the Caspase-Glo® 3/7 Assay (Promega, US) following the protocol and relative caspase-3/7 activity was normalized to cell number which DMSO control was the base line. […]

T2 sequence (P49840 whole entry): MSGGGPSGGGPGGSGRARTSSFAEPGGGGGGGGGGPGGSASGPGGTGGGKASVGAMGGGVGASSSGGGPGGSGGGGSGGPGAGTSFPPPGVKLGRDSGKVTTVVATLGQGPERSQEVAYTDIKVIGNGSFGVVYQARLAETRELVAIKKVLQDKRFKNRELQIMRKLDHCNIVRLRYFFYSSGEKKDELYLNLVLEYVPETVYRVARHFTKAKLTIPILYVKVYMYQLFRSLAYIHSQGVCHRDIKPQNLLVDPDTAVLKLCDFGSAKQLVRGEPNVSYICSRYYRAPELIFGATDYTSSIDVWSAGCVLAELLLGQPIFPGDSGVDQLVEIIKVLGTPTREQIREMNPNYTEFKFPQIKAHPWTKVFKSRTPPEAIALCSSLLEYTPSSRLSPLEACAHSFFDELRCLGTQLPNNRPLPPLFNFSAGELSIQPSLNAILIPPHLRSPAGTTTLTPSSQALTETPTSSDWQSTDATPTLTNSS
T1 sequence (P08069 31-1367): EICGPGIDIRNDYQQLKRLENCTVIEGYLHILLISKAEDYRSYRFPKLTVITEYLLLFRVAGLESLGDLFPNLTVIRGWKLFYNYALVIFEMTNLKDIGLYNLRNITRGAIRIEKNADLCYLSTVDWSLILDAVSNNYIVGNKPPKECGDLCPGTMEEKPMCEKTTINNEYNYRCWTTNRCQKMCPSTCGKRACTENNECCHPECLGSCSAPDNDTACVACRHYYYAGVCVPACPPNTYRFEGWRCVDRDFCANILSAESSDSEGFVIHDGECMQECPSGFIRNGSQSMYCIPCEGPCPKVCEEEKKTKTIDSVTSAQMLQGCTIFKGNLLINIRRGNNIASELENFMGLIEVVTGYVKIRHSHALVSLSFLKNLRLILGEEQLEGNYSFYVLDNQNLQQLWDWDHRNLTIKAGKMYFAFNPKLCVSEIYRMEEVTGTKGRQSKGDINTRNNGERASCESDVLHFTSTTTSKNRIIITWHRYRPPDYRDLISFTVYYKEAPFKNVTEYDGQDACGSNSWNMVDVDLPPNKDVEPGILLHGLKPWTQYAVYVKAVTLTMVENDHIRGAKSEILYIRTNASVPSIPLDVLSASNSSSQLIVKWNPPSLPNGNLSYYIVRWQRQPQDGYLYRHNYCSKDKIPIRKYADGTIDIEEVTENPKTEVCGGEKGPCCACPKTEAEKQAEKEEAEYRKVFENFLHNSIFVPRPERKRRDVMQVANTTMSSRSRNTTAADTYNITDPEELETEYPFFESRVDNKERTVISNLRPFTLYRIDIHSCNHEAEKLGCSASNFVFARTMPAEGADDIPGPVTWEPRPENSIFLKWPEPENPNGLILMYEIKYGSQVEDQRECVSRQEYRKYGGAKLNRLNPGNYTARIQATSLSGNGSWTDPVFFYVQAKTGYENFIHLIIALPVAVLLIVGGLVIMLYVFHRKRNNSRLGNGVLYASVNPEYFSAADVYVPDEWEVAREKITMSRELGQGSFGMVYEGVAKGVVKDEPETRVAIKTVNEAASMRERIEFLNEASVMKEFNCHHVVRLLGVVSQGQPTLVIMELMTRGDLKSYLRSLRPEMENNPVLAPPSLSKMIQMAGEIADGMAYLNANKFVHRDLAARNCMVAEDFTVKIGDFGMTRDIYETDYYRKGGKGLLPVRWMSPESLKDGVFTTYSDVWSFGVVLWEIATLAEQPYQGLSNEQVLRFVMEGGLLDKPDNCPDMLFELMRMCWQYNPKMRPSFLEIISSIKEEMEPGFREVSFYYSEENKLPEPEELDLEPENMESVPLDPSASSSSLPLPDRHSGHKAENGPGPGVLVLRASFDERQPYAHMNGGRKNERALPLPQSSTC
T4 sequence (P12931 1-530 limits assumed): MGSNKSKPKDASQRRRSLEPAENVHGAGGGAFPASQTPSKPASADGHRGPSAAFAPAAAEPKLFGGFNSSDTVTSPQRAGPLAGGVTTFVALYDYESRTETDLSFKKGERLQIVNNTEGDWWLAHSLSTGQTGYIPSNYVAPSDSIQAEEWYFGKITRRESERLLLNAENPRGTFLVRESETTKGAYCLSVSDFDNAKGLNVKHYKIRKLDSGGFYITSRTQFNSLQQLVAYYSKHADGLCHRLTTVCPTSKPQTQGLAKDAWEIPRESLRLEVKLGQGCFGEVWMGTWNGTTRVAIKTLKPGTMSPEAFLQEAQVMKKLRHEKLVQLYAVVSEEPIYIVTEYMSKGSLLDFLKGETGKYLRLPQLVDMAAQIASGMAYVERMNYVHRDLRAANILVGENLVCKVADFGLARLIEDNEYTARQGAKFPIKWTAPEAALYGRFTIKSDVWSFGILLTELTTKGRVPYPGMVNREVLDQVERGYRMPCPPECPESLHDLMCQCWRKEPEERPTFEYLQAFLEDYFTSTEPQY
T5 sequence (Q13131 whole entry): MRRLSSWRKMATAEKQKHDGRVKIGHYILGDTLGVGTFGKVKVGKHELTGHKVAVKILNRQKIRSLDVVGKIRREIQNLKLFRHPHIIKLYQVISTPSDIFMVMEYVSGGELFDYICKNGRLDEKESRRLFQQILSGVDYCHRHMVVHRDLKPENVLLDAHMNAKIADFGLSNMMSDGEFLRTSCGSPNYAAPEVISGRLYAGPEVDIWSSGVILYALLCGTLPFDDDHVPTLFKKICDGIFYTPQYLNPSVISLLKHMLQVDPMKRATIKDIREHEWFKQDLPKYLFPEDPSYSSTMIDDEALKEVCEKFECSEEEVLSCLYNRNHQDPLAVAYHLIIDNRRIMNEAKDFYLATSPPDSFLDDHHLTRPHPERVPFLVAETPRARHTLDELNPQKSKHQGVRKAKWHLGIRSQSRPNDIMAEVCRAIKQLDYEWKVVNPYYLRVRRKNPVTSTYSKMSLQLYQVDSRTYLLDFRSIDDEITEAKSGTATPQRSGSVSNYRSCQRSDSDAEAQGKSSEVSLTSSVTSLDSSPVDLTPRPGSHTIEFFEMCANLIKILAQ
T5 sequence (Q9Y478 whole entry partner): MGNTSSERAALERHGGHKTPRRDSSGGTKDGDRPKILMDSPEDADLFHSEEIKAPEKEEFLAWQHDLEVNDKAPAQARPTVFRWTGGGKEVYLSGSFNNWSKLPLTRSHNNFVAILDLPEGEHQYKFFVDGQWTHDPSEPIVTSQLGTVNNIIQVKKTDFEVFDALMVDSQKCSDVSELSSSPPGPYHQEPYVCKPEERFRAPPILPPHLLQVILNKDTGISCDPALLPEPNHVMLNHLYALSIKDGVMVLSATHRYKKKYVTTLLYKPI
T5 sequence (P54619 whole entry partner): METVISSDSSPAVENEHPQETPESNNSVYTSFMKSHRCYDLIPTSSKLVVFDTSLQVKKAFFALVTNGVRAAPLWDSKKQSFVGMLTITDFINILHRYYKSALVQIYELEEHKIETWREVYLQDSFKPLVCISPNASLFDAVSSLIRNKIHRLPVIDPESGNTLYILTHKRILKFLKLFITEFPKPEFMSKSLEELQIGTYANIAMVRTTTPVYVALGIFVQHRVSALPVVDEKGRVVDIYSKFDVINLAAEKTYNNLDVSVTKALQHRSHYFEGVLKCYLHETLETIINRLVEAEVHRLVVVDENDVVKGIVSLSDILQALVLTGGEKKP
T3 sequence (Q9UHD2 whole entry): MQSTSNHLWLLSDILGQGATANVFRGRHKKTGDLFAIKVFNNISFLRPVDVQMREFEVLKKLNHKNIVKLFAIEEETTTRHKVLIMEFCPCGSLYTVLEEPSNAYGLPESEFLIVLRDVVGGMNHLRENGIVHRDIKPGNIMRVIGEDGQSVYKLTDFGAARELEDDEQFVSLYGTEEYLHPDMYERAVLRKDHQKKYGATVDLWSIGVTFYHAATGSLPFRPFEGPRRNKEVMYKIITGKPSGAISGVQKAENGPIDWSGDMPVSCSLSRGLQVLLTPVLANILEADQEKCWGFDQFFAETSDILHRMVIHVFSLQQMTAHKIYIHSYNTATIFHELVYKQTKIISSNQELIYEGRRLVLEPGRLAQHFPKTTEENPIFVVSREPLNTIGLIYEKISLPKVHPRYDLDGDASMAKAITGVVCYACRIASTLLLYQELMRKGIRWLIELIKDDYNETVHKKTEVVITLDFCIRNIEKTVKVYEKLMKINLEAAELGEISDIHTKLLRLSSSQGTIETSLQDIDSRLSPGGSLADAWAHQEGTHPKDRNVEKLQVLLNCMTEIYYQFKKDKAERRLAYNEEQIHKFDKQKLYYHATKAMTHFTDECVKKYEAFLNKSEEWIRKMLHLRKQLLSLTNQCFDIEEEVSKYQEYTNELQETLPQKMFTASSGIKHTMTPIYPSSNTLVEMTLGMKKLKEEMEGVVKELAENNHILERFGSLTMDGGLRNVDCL

O=C(N1CCCC1)N1CCC(n2cnc3c(-n4c(C(F)F)nc5ccccc54)nc(N4CCOCC4)nc32)CC1 [X-370]
Kinase activity (% of control) (IGF-1R, activated): 120 % of control | Kinase activity (% of control) (GSK3 α): 94 % of control | Kinase activity (% of control) (TBK1): 93 % of control | Kinase activity (% of control) (Src(1-530)): 99 % of control | Kinase activity (% of control) (AMPK α1): 101 % of control | IGF-1-induced Akt phosphorylation [1]: partially inhibited | Akt and S6k1 phosphorylation (Raji-R cells): significantly inhibited | level of phosphorylated Erk1/2 (Raji-R cells): negligible activity
